According to patent publication US10450316B2, “Certain protein kinase inhibitor” (Chongqing Fochon Pharmaceutical Co., Ltd., priority 2015, dated 2019):

Tested on: BE(2)-C cell
Assay: Cell proliferation assay (MTS) in BE(2)-C cells
Assay type: cell-based
Details: Homo sapiens, inhibition of BE(2)-C cell proliferation, 48 h
How it was run: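 BE(2)-C cells (3000/well, DMEM + 10% FBS) were treated for 48 h at 37 °C with compound at 1.5–10000 nM in nine concentrations. Viability was measured by MTS (2 h, stopped with SDS) at 490/650 nm, and IC50 was calculated from the dose-response.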

Row | Compound | IC50 [nM]
1 | CCN1C[C@@H]2C[C@H]1CN2Cc1ccc(Nc2ncc(F)c(-c3cc(F)c4nc5n(c4c3)C3(CC5)CC3)n2)nc1 [Example 137, N-(5-(((1S,4S)-5-ethyl-2,5-diazabicyclo[2.2.1]heptan-2-yl)methyl)pyridin-2-yl)-5-fluoro-4-(5-fluoro-2,3-dihydrospiro[benzo[d]pyrrolo[1,2-a]imidazole-1,1′-cyclopropan]-7-yl)pyrimidin-2-amine] | 10 to 100
2 | C[C@@]12CNC[C@]1(C)CN(Cc1ccc(Nc3ncc(F)c(-c4cc(F)c5nc6n(c5c4)C4(CC6)CC4)n3)nc1)C2 [Example 138, N-(5-(((3aR,6aS)-3a,6a-dimethylhexahydro-pyrrolo[3,4-c]pyrrol-2(1H)-yl)methyl)pyridin-2-yl)-5-fluoro-4-(5-fluoro-2,3-dihydro-spiro[benzo[d]pyrrolo[1,2-a]imidazole-1,1′-cyclopropan]-7-yl)pyrimidin-2-amine] | > 1000
3 | CN1C[C@@]2(C)CN(Cc3ccc(Nc4ncc(F)c(-c5cc(F)c6nc7n(c6c5)C5(CC7)CC5)n4)nc3)C[C@@]2(C)C1 [Example 139, 5-fluoro-4-(5-fluoro-2,3-dihydrospiro[benzo[d]pyrrolo[1,2-a]imidazole-1,1′-cyclopropan]-7-yl)-N-(5-(((3aR,6aS)-3a,5,6a-trimethylhexahydro-pyrrolo[3,4-c]pyrrol-2(1H)-yl)methyl)pyridin-2-yl)pyrimidin-2-amine] | > 1000
4 | CCN1C[C@@]2(C)CN(Cc3ccc(Nc4ncc(F)c(-c5cc(F)c6nc7n(c6c5)C5(CC7)CC5)n4)nc3)C[C@@]2(C)C1 [Example 140, N-(5-(((3aR,6aS)-5-ethyl-3a,6a-dimethyl-hexahydropyrrolo[3,4-c]pyrrol-2(1H)-yl)methyl)pyridin-2-yl)-5-fluoro-4-(5-fluoro-2,3-dihydro-spiro[benzo[d]pyrrolo[1,2-a]imidazole-1,1′-cyclopropan]-7-yl)pyrimidin-2-amine] | > 100
5 | Fc1cnc(Nc2ccc(CN3CC4CNC4C3)cn2)nc1-c1cc(F)c2nc3n(c2c1)C1(CC3)CC1 (stereo not drawn) [Example 141, N-(5-((3,6-diazabicyclo[3.2.0]heptan-3-yl)methyl)pyridin-2-yl)-5-fluoro-4-(5-fluoro-2,3-dihydro-spiro[benzo[d]pyrrolo[1,2-a]imidazole-1,1′-cyclo-propan]-7-yl)pyrimidin-2-amine] | > 1000
6 | CN1CC2CN(Cc3ccc(Nc4ncc(F)c(-c5cc(F)c6nc7n(c6c5)C5(CC7)CC5)n4)nc3)CC21 (stereo not drawn) [Example 142, 5-fluoro-4-(5-fluoro-2,3-dihydrospiro[benzo[d]pyrrolo[1,2-a]imidazole-1,1′-cyclopropan]-7-yl)-N-(5-((6-methyl-3,6-diazabicyclo[3.2.0]heptan-3-yl)methyl)pyridin-2-yl)pyrimidin-2-amine] | > 1000
7 | CCN1CC2CN(Cc3ccc(Nc4ncc(F)c(-c5cc(F)c6nc7n(c6c5)C5(CC7)CC5)n4)nc3)CC21 (stereo not drawn) [Example 143, N-(5-((6-ethyl-3,6-diazabicyclo[3.2.0]heptan-3-yl)methyl)pyridin-2-yl)-5-fluoro-4-(5-fluoro-2,3-dihydrospiro[benzo[d]pyrrolo[1,2-a]imidazole-1,1′-cyclopropan]-7-yl)pyrimidin-2-amine] | > 1000
8 | Fc1cnc(Nc2ccc(CN3CCN4CCC[C@H]4C3)cn2)nc1-c1cc(F)c2nc3n(c2c1)C1(CC3)CC1 [Example 144, (S)-5-fluoro-4-(5-fluoro-2,3-dihydrospiro[benzo [d]pyrrolo[1,2-a]imidazole-1,1′-cyclopropan]-7-yl)-N-(5-((hexahydropyrrolo[1,2-a]pyrazin-2(1H)-yl)methyl)pyridin-2-yl)pyrimidin-2-amine] | 10 to 100
9 | Fc1cnc(Nc2ccc(CN3CCN4CCC[C@@H]4C3)cn2)nc1-c1cc(F)c2nc3n(c2c1)C1(CC3)CC1 [Example 145, (R)-5-fluoro-4-(5-fluoro-2,3-dihydrospiro[benzo [d]pyrrolo[1,2-a]imidazole-1,1′-cyclopropan]-7-yl)-N-(5-((hexahydropyrrolo[1,2-a]pyrazin-2(1H)-yl)methyl)pyridin-2-yl)pyrimidin-2-amine] | 10 to 100
10 | O[C@@H]1C[C@H]2CN(Cc3ccc(Nc4ncc(F)c(-c5cc(F)c6nc7n(c6c5)C5(CC7)CC5)n4)nc3)CCN2C1 [Example 146, (7R,8aS)-2-((6-((5-fluoro-4-(5-fluoro-2,3-dihydro-spiro[benzo[d]pyrrolo[1,2-a]imidazole-1,1′-cyclo-propan]-7-yl)pyrimidin-2-yl)amino)pyridin-3-yl)methyl)octahydropyrrolo[1,2-a]pyrazin-7-ol] | > 1000
11 | NC1C2CN(Cc3ccc(Nc4ncc(F)c(-c5cc(F)c6nc7n(c6c5)C5(CC7)CC5)n4)nc3)CC12 (stereo not drawn) [Example 147, 3-((6-((5-fluoro-4-(5-fluoro-2,3-dihydrospiro [benzo[d]pyrrolo[1,2-a]imidazole-1,1′-cyclo-propan]-7-yl)pyrimidin-2-yl)amino)pyridin-3-yl)methyl)-3-azabicyclo[3.1.0]hexan-6-amine] | > 1000
12 | Fc1cnc(Nc2ccc(CN3CCN4CCOC[C@H]4C3)cn2)nc1-c1cc(F)c2nc3n(c2c1)C1(CC3)CC1 [Example 148, (R)-5-fluoro-4-(5-fluoro-2,3-dihydrospiro[benzo [d]pyrrolo[1,2-a]imidazole-1,1′-cyclopropan]-7-yl)-N-(5-((hexahydropyrazino[2,1-c][1,4]oxazin-8(1H)-yl)methyl)pyridin-2-yl)pyrimidin-2-amine] | 10 to 100
13 | Fc1cnc(Nc2ccc(CN3CCNCC3)cn2)nc1-c1cc(F)c2nc3n(c2c1)CCC3 [Example 149, 5-fluoro-4-(5-fluoro-2,3-dihydro-1H-benzo[d]pyrrolo[1,2-a]imidazol-7-yl)-N-(5-(piperazin-1-ylmethyl)pyridin-2-yl)pyrimidin-2-amine] | > 100
14 | CN1CCN(Cc2ccc(Nc3ncc(F)c(-c4cc(F)c5nc6n(c5c4)CCC6)n3)nc2)CC1 [Example 150, 5-fluoro-4-(5-fluoro-2,3-dihydro-1H-benzo[d]pyrrolo[1,2-a]imidazol-7-yl)-N-(5-((4-methyl-piperazin-1-yl)methyl)pyridin-2-yl)pyrimidin-2-amine] | 10 to 100
15 | Fc1cnc(Nc2ccc(CN3CCNCC3)cn2)nc1-c1cc(F)c2nc3n(c2c1)[C@@H](C(F)F)CC3 [Example 152, (R)-4-(1-(difluoromethyl)-5-fluoro-2,3-dihydro-1H-benzo[d]pyrrolo[1,2-a]imidazol-7-yl)-5-fluoro-N-(5-(piperazin-1-ylmethyl)pyridin-2-yl)pyrimidin-2-amine] | > 1000
16 | CN1CCN(Cc2ccc(Nc3ncc(F)c(-c4cc(F)c5nc6n(c5c4)[C@@H](C(F)F)CC6)n3)nc2)CC1 [Example 153, (R)-4-(1-(difluoromethyl)-5-fluoro-2,3-dihydro-1H-benzo[d]pyrrolo[1,2-a]imidazol-7-yl)-5-fluoro-N-(5-((4-methylpiperazin-1-yl)methyl)pyridin-2-yl)pyrimidin-2-amine] | > 1000
17 | CCN1CCN(Cc2ccc(Nc3ncc(F)c(-c4cc(F)c5nc6n(c5c4)[C@@H](C(F)F)CC6)n3)nc2)CC1 [Example 154, (R)-4-(1-(difluoromethyl)-5-fluoro-2,3-dihydro-1H-benzo[d]pyrrolo[1,2-a]imidazol-7-yl)-N-(5-((4-ethylpiperazin-1-yl)methyl)pyridin-2-yl)-5-fluoropyrimidin-2-amine] | > 1000
18 | COC[C@H]1CCc2nc3c(F)cc(-c4nc(Nc5ccc(CN6CCNCC6)cn5)ncc4F)cc3n21 [Example 158, (R)-5-fluoro-4-(5-fluoro-1-(methoxymethyl)-2,3-dihydro-1H-benzo[d]pyrrolo[1,2-a]imidazol-7-yl)-N-(5-(piperazin-1-ylmethyl)pyridin-2-yl)pyrimidin-2-amine] | > 1000
19 | COC[C@H]1CCc2nc3c(F)cc(-c4nc(Nc5ccc(CN6CCN(C)CC6)cn5)ncc4F)cc3n21 [Example 159, (R)-5-fluoro-4-(5-fluoro-1-(methoxymethyl)-2,3-dihydro-1H-benzo[d]pyrrolo[1,2-a]imidazol-7-yl)-N-(5-((4-methylpiperazin-1-yl)methyl)pyridin-2-yl)pyrimidin-2-amine] | > 1000
20 | CCN1CCN(Cc2ccc(Nc3ncc(F)c(-c4cc(F)c5nc6n(c5c4)[C@@H](COC)CC6)n3)nc2)CC1 [Example 160, (R)-N-(5-((4-ethylpiperazin-1-yl)methyl)pyridin-2-yl)-5-fluoro-4-(5-fluoro-1-(methoxymethyl)-2,3-dihydro-1H-benzo[d]pyrrolo[1,2-a]imidazol-7-yl)pyrimidin-2-amine] | > 100
21 | CC1(C)CCc2nc3c(F)cc(-c4cc(Nc5ccc(CN6C7CCC6CNC7)cn5)ncc4F)cc3n21 [Example 161, N-(5-((3,8-diazabicyclo[3.2.1]octan-8-yl)methyl)pyridin-2-yl)-5-fluoro-4-(5-fluoro-1,1-dimethyl-2,3-dihydro-1H-benzo[d]pyrrolo[1,2-a]imidazol-7-yl)pyridin-2-amine] | > 100
22 | CN1CC2CCC(C1)N2Cc1ccc(Nc2cc(-c3cc(F)c4nc5n(c4c3)C(C)(C)CC5)c(F)cn2)nc1 [Example 162, 5-fluoro-4-(5-fluoro-1,1-dimethyl-2,3-dihydro-1H-benzo[d]pyrrolo[1,2-a]imidazol-7-yl)-N-(5-((3-methyl-3,8-diazabicyclo[3.2.1]octan-8-yl)methyl)pyridin-2-yl)pyridin-2-amine] | > 1000
23 | CCN1CC2CCC(C1)N2Cc1ccc(Nc2cc(-c3cc(F)c4nc5n(c4c3)C(C)(C)CC5)c(F)cn2)nc1 [Example 163, N-(5-((3-ethyl-3,8-diazabicyclo[3.2.1]octan-8-yl)methyl)pyridin-2-yl)-5-fluoro-4-(5-fluoro-1,1-dimethyl-2,3-dihydro-1H-benzo[d]pyrrolo[1,2-a]imidazol-7-yl)pyridin-2-amine] | > 1000
24 | CC1(C)CCc2nc3c(F)cc(-c4cc(Nc5ncc(CN6CCNCC6)cn5)ncc4F)cc3n21 [Example 164, N-(5-fluoro-4-(5-fluoro-1,1-dimethyl-2,3-dihydro-1H-benzo[d]pyrrolo[1,2-a]imidazol-7-yl)pyridin-2-yl)-5-(piperazin-1-ylmethyl)pyrimidin-2-amine] | 10 to 100
